The values below come from PMC10341764 (International Journal of Molecular Sciences, 2023).

One series has as its system adrenals. Particulars: cited from earlier work.
The next series concerns ACAT. Also noted: method as in PMID 8937424, PMID 12536672. Particulars: cited from earlier work.
The next series has as its system cortical regions. Also noted: method as in PMID 23427273. Particulars: fed to mice for seven days; cited from earlier work.
A further series deals with 5xFAD mouse model. More on the design: method as in PMID 37157042. Particulars: oral feeding for 60 days; cited from earlier work.
The next series concerns the target ACAT2. As to conditions: cited from earlier work.
A further series deals with ACAT1. Particulars: cited from earlier work.
On the set-up of series [1]: method as in PMID 12735237. As to conditions: cited from earlier work.
For the next series, the system named is mouse model for EOAD. More on the design: method as in PMID 15473963. As to conditions: slow-releasing pellet implanted underneath the mouse skin; cited from earlier work.
In another series the test system is ACAT enzyme. In words: ACAT enzyme activity in tissue homogenates after IV injection (mixed micelles assay). Particulars: judged by ACAT inhibition in brain.
The nature of series [2]: HPLC/MS/MS analysis of F12511 content in plasma and tissues. Type of series: in vivo. Particulars: mouse, brain / plasma, intravenous, 46 mg F12511/kg; 12 to 24 h time point. As for the experimental part: We also monitored the ACAT enzyme activities in various tissues 4 to 48 h after a single IV injection of nanoparticle F at 46 mg/kg.
Both compounds were dissolved in DMSO at 10 mg/mL and stored at −40 °C. Subsequent working dilutions were made in fresh acetonitrile (ACN) daily. Calibrators and quality control measures were used in the appropriate matrix: C57BL/6 plasma (anticoagulant: K3-EDTA, Innovative Research), brain homogenate, liver homogenate, and adrenal gland homogenate. The tissues were homogenized at 0.1 g/mL in diH2O by using stainless steel beads and a Next Advance Bullet Blender. All the samples (50 µL) were protein precipitated, with 150 µL of 10 ng/mL CP113,818 in ACN acting as an internal standard and added via vortex for 1 min and centrifugation for 5 min at 15,000 rpm. In total, 150 µL of supernatant was transferred to amber autosampler vials, and 10 µL was injected on the LC-MS/MS system. […] The heated ESI source was operated with a spray voltage of 4500 V, vaporizer temperature at 500 °C, capillary temperature at 250 °C, and sheath and auxiliary gases at 30 and 15 arbitrary units, respectively.

Details of series [3]: method as in PMID 31646241. As to conditions: cited from earlier work.

pKi: −log10 of the molar value.

Consider `CCCCCCCCC(SCCCCCC)C(=O)Nc1c(SC)cc(C)nc1SC` (single isomer, unassigned) [enantiomeric isomer of CP113,818], for which the adrenal toxicity entry in the series on adrenals was “causes severe adrenal toxicity”. Also, the “activity as ACAT inhibitor” value in the series with ACAT is “inactive as an ACAT inhibitor”.

In the case of `O=C(O)C[C@H]1CC[C@H](c2ccc(NC(=O)c3nnc(Nc4ccc(F)c(F)c4)o3)cc2)CC1` [AZD3988], the “fine vacuolation in cortical regions” value in the series with cortical regions is “significant reduction in fine vacuolation in cortical regions”.

Regarding `CC(C)c1cc(C(C)C)c(CC(=O)NS(=O)(=O)Oc2c(C(C)C)cccc2C(C)C)c(C(C)C)c1` [CI1011, 2,6-bis(1-methylethyl)phenyl ((2,4,6-tris(1-methylethyl)phenyl)acetyl)sulfamate], the “amyloidopathy and other AD-like pathologies” value in the series on 5xFAD mouse model was “ameliorated amyloidopathy and other AD-like pathologies”. Further, the pKi on ACAT2 and on ACAT1 was 4.70 in each case. For the same compound, the “clinical phase 1 safety tests” value in series [1] is given as “passed clinical phase 1 safety tests”.

Consider `CCCCCCCC[C@H](SCCCCCC)C(=O)Nc1c(SC)cc(C)nc1SC` [CP113,818], for which the pKi at ACAT2 and on ACAT1 was 7.70 each time. Further, in the series on adrenals (preclinical trial, animals), the “adrenal accumulation and toxicity” value is “accumulated in adrenals in animals and caused toxicity”. Also, the amyloidopathy entry in the series on mouse model for EOAD is “effective in suppressing amyloidopathy”.

Take `CCCCCCCCCCCCS[C@H](C(=O)Nc1cc(C)c(O)c(C)c1C)c1ccccc1` [F12511, (S)-2′,3′,5′-trimethyl-4′-hydroxy-alpha-dodecylthio-alpha-phenylacetanilide]: the “permeability to the mouse brain as part of nanoparticles” value with ACAT enzyme is reported as “permeable to the mouse brain”. Also, at ACAT2, the pKi is 6.96. The “clinical phase 1 safety tests” value in series [1] is given as “passed clinical phase 1 safety tests”. Further, the Kp in series [2] is 0.005 to 0.01. Further, in the series on adrenals, the “adrenal toxicity in animals” value was “did not cause adrenal toxicity in animals”.

As for `CSc1cc(C)nc(SC)c1NC(=O)CN1CCN(CCSc2nc3ccccc3[nH]2)CC1.Cl.Cl` [K604, 2-[4-[2-(Benzimidazol-2-ylthio)ethyl]piperazin-1yl]-N-[2,4-bis(methylthio)-6-methyl-3-pyridyl]acetamide dihydrochloride], in [3], the “permeability to the mouse brain” value is “impermeable to the mouse brain”. Besides, the “clinical phase 1 safety tests” value in [1] is “passed clinical phase 1 safety tests”.
